Usually inhibition stands for the drop in the measured response relative to a control, in per cent.

The values that follow come from PubChem BioAssay AID2368 (The Scripps Research Institute Molecular Screening Center, 2010).

This test deals with Protein phosphatase methylesterase 1 (Homo sapiens) (UniProt Q9Y570). The test is described as follows: PME-1 activity inhibition following gel filtration – gel-based ABPP, late-stage follow-up (AID 2368). The note with it: PME-1 labeling, active compounds read high, concentration not given here. (In general: In gel filtration, larger molecules generally elute earlier.)
Sequence of Protein phosphatase methylesterase 1 (Homo sapiens) (Q9Y570 whole entry, looked up): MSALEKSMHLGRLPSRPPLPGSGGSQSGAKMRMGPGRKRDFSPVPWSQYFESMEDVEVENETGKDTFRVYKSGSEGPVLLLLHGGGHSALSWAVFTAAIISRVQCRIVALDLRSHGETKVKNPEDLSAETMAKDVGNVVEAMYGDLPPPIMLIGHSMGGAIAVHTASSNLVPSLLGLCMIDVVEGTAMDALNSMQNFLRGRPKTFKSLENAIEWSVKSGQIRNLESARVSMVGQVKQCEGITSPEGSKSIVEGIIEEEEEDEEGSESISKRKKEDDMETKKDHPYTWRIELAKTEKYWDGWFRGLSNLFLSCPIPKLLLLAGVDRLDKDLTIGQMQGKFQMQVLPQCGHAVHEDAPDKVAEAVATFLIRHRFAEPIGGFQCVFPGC

Regarding `N#C/C(=C\c1cccn1S(=O)(=O)c1cccc(C#N)c1)S(=O)(=O)c1ccc(F)cc1`, the inhibition is over 50%.
Consider `N#C/C(=C\c1cccn1S(=O)(=O)c1cccc([N+](=O)[O-])c1)S(=O)(=O)c1ccc(F)cc1`, for which the inhibition is over 50%.
